Patent publication US10966426B2, “Herbicidal compositions comprising phenylpyrimidines” (BASF SE, priority 2016, dated 2021)

Assays:
Format in all cases: in vivo
[1] = test system: Poa annua; test: greenhouse post-emergence treatment, POAAN; conditions: for % activity: 21 DAT
Procedure: (§1) The culture containers used were plastic pots containing loamy sand with approximately 3.0% of humus as substrate. The seeds of the test plants were sown separately for each species.
(§2) For the post-emergence treatment, the test plants were grown to a plant height of from 3 to 15 cm, depending on the plant habit, and only then treated with the active compounds which had been suspended or emulsified in water. To this end, the test plants were either sown directly, and grown in the same containers, or they were first grown separately as seedlings and transplanted into the test containers a few days prior to treatment.
(§3) Depending on the species, the plants were kept at 10-25° C. and 20-35° C., respectively.
(§4) The test period extended over 2 to 4 weeks. During this time, the plants were tended and their response to the individual treatments was evaluated.
(§5) Evaluation was carried out using a scale from 0 to 100. 100 means no emergence of the plants, or complete destruction of at least the above-ground parts, and 0 means no damage or normal course of growth. A good herbicidal activity is given at values of at least 70, and very good herbicidal activity is given at values of at least 85.
(§6) The respective stated components A and B, and if appropriate, C were formulated as a 10% by weight strength emulsion concentrate and, with addition of the amount of solvent system, introduced into the spray liquor used for applying the active compound. In the examples, the solvent used was water.
(§7) In the examples below, using the method of S. R. Colby (1967) “Calculating synergistic and antagonistic responses of herbicide combinations”, Weeds 15, p. 22ff., the value E, which is expected if the activity of the individual active compounds is only additive, was calculated. E=X+Y−(X·Y/100) where X=effect in percent using herbicide A at an application rate a; • Y=effect in percent using herbicide B at application rate b; • E=expected effect (in %) of herbicide A+herbicide B at application rates a+b.

[2] = test system: Alopecurus myosuroides; test: greenhouse post-emergence treatment, ALOMY; conditions: for % activity: 21 DAT
Procedure: as §1
To this end, the test plants were either sown directly, and grown in the same containers, or they were first grown separately as seedlings and transplanted into the test containers a few days prior to treatment.
as §3, §4, §5
In the examples, the solvent used was water.
In the examples below, using the method of S. R. Colby (1967) “Calculating synergistic and antagonistic responses of herbicide combinations”, Weeds 15, p. […] E=X+Y−(X·Y/100) where X=effect in percent using herbicide A at an application rate a; • Y=effect in percent using herbicide B at application rate b; • E=expected effect (in %) of herbicide A+herbicide B at application rates a+b.

[3] = test system: Papaver rhoeas; test: greenhouse post-emergence treatment, PAPRH; conditions: for % activity: 21 DAT
Procedure: as §1, §2, §3, §4, §5, §6, §7

[4] = test system: Avena fatua; test: greenhouse post-emergence treatment, AVEFA; conditions: Avena fatua, 480 h, 20 DAT, AVEFA, Table X4, read-out: % activity, solo application
In short: (§8)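 Scoring ran on a 0-100 scale, 100 meaning no emergence or destroyed above-ground parts, over a 2-4 week period; Colby formula E=X+Y−(X·Y/100) gave expected mixture effects. Species grew separately in loamy sand (about 3.0% humus) at 10-25° C or 20-35° C, with water as solvent.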

[5] = test system: Matricaria chamomilla; test: greenhouse post-emergence treatment, MATCH
In short: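 Post-emergence greenhouse spray on 3–15 cm plants, sown direct or transplanted a few days before treatment. Scored visually on a 0–100 scale after 2 to 4 weeks; expected additive effect computed by Colby: E=X+Y−(X·Y/100).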

[6] = test system: Lolium multiflorum; test: greenhouse post-emergence treatment, LOLMU; conditions: for % activity: 21 DAT
In short: as §8

[7] = test system: Setaria viridis; test: greenhouse post-emergence treatment, SETVI
In short: as §8

[8] = test system: Galium aparine; test: greenhouse post-emergence treatment, GALAP; conditions: Galium aparine, 480 h
Procedure: as §1, §2, §3, §4, §5, §6, §7

[9] = test system: Stellaria media; test: greenhouse post-emergence treatment, STEME; conditions: Stellaria media, 480 h, read-out: % activity
Procedure: as §1, §2, §3, §4, §5, §6, §7

[10] = test system: Digitaria sanguinalis; test: greenhouse post-emergence treatment, DIGSA
In short: as §8

[11] = test system: Bromus sterilis; test: greenhouse post-emergence treatment, BROST; conditions: for % activity: 21 DAT
In short: as §8

[12] = test system: Brachiaria decumbens; test: greenhouse post-emergence treatment, BRADC; conditions: Urochloa decumbens, 480 h, read-out: % activity
Procedure: as §1, §2, §3, §4, §5, §6, §7

[13] = test system: Apera spica-venti; test: greenhouse post-emergence treatment, APESV
Procedure: as §1, §2, §3, §4, §5, §6, §7

[14] = test system: Polygonum aviculare; test: greenhouse post-emergence treatment, POLAV; conditions: Polygonum aviculare, 480 h, 20 DAT, POLAV, Table X4, read-out: % activity, solo application
Procedure: as §1, §2, §3, §4, §5, §6, §7

[15] = test system: Polygonum convolvulus; test: greenhouse post-emergence treatment, POLCO; conditions: 21 DAT
Procedure: as §1, §2, §3, §4, §5, §6, §7

[16] = test system: Echinocloa crus-galli; test: greenhouse post-emergence treatment, ECHCG; conditions: ECHCG, 21 DAT
Procedure: as §1, §2, §3, §4, §5, §6, §7

[17] = test system: Ambrosia elatior; test: greenhouse post-emergence treatment, AMBEL; conditions: 21 DAT, topramezone solo 6 gai/ha
Procedure: as §1, §2, §3, §4, §5, §6, §7

[18] = Poa annua, 480 h, read-out: % activity
[19] = Alopecurus myosuroides, 480 h, read-out: % activity
[20] = Lolium multiflorum, 480 h, read-out: % activity
[21] = Digitaria sanguinalis, 480 h, read-out: % activity
[22] = Bromus sterilis, 480 h, read-out: % activity
[23] = 21 DAT, topramezone solo 6 gai/ha
[24] = 21 DAT, topramezone solo 3 gai/ha

SMILES: N#Cc1cc(Br)c(O)c(Br)c1 [Bromoxynil, bromoxynil]
- pest or weed control at 31.25 g/ha [1, 18]: 0%
- pest or weed control at 62.5 g/ha [1, 18]: 0%
- pest or weed control at 125 g/ha [1, 18]: 0%
- pest or weed control at 250 g/ha [1, 18]: 0%
- pest or weed control at 31.25 g/ha [2, 19]: 0%
- pest or weed control at 62.5 g/ha [2, 19]: 0%
- pest or weed control at 125 g/ha [2, 19]: 0%
- pest or weed control at 250 g/ha [2, 19]: 10%
- inhibition at 31.25 g/ha ([3]; Papaver rhoeas, 480 h, 31.25 gai/ha (EC 235 g/l), 20 DAT, PAPRH, Table X4, read-out: % activity, solo application): 40%
- inhibition at 31.25 g/ha ([4]; 31.25 gai/ha (EC 235 g/l)): 0%
- inhibition at 125 g/ha ([4]; 125 gai/ha (EC 235 g/l)): 0%
- inhibition at 31.25 g/ha ([5]; Matricaria chamomilla, 480 h, 31.25 gai/ha (EC 235 g/l), 20 DAT, MATCH, Table X4, read-out: % activity, solo application): 55%
- inhibition at 31.25 g/ha ([6]; Lolium multiflorum, 480 h, 31.25 gai/ha (EC 235 g/l), 20 DAT, LOLMU, Table X4, read-out: % activity, solo application): 0%
- inhibition at 62.5 g/ha ([6]; Lolium multiflorum, 480 h, 62.5 gai/ha (EC 235 g/l), 20 DAT, LOLMU, Table X4, read-out: % activity, solo application): 0%
- inhibition at 125 g/ha ([6]; Lolium multiflorum, 480 h, 125 gai/ha (EC 235 g/l), 20 DAT, LOLMU, Table X4, read-out: % activity, solo application): 0%
- inhibition at 250 g/ha ([6]; Lolium multiflorum, 480 h, 250 gai/ha (EC 235 g/l), 20 DAT, LOLMU, Table X4, read-out: % activity, solo application): 0%
- pest or weed control at 31.25 g/ha [6, 20]: 0%
- pest or weed control at 62.5 g/ha [6, 20]: 0%
- pest or weed control at 125 g/ha [6, 20]: 0%
- pest or weed control at 250 g/ha [6, 20]: 0%
- inhibition at 31.25 g/ha ([7]; Setaria viridis, 480 h, 31.25 gai/ha (EC 235 g/l), 20 DAT, SETVI, Table X4, read-out: % activity, solo application): 0%
- inhibition at 250 g/ha ([7]; Setaria viridis, 480 h, 250 gai/ha (EC 235 g/l), 20 DAT, SETVI, Table X4, read-out: % activity, solo application): 0%
- inhibition at 62.5 g/ha ([8]; 62.5 gai/ha (EC 235 g/l), 20 DAT, GALAP, Table X4, read-out: % activity, solo application): 65%
- inhibition at 125 g/ha ([8]; 125 gai/ha (EC 235 g/l), 20 DAT, GALAP, Table X4, read-out: % activity, solo application): 80%
- pest or weed control at 31.25 g/ha ([8]; read-out: % activity): 65%
- pest or weed control at 62.5 g/ha ([8]; read-out: % activity): 65%
- pest or weed control at 125 g/ha ([8]; read-out: % activity): 80%
- pest or weed control at 31.25 g/ha [9]: 30%
- pest or weed control at 62.5 g/ha [9]: 50%
- pest or weed control at 125 g/ha [9]: 60%
- inhibition at 31.25 g/ha ([10]; Digitaria sanguinalis, 480 h, 31.25 gai/ha (EC 235 g/l), 20 DAT, DIGSA, Table X4, read-out: % activity, solo application): 0%
- inhibition at 62.5 g/ha ([10]; Digitaria sanguinalis, 480 h, 62.5 gai/ha (EC 235 g/l), 20 DAT, DIGSA, Table X4, read-out: % activity, solo application): 0%
- inhibition at 125 g/ha ([10]; Digitaria sanguinalis, 480 h, 125 gai/ha (EC 235 g/l), 20 DAT, DIGSA, Table X4, read-out: % activity, solo application): 0%
- inhibition at 250 g/ha ([10]; Digitaria sanguinalis, 480 h, 250 gai/ha (EC 235 g/l), 20 DAT, DIGSA, Table X4, read-out: % activity, solo application): 0%
- pest or weed control at 31.25 g/ha [10, 21]: 0%
- pest or weed control at 62.5 g/ha [10, 21]: 0%
- pest or weed control at 125 g/ha [10, 21]: 0%
- pest or weed control at 250 g/ha [10, 21]: 0%
- pest or weed control at 31.25 g/ha [11, 22]: 0%
- pest or weed control at 62.5 g/ha [11, 22]: 0%
- pest or weed control at 125 g/ha [11, 22]: 0%
- pest or weed control at 250 g/ha [11, 22]: 0%
- pest or weed control at 31.25 g/ha [12]: 0%
- pest or weed control at 62.5 g/ha [12]: 0%
- pest or weed control at 125 g/ha [12]: 10%
- % activity ([13]; APESV, bromoxynil solo 250 gai/ha, 20 DAT): 0%
- inhibition at 31.25 g/ha ([14]; 31.25 gai/ha (EC 235 g/l)): 65%
- inhibition at 62.5 g/ha ([14]; 62.5 gai/ha (EC 235 g/l)): 65%
- inhibition at 125 g/ha ([14]; 125 gai/ha (EC 235 g/l)): 65%

SMILES: Cc1c(C(=O)c2cnn(C)c2O)ccc(S(C)(=O)=O)c1C1=NOCC1 [topramezone]
- % activity ([1]; topramezone solo 3 gai/ha): 0%
- % activity ([1]; topramezone solo 6 gai/ha): 0%
- % activity ([1]; topramezone solo 12 gai/ha): 0%
- % activity ([1]; topramezone solo 24 gai/ha): 0%
- % activity ([1]; POAAN, solo topramezone (SC 336 g/l) 3 gai/ha): 0%
- % activity ([1]; POAAN, solo topramezone (SC 336 g/l) 6 gai/ha): 0%
- % activity ([1]; POAAN, solo topramezone (SC 336 g/l) 12 gai/ha): 0%
- % activity ([1]; POAAN, solo topramezone (SC 336 g/l) 24 gai/ha): 0%
- % activity ([2]; topramezone solo 3 gai/ha): 0%
- % activity ([2]; topramezone solo 6 gai/ha): 0%
- % activity ([2]; topramezone solo 12 gai/ha): 0%
- % activity ([2]; topramezone solo 24 gai/ha): 10%
- % activity ([2]; ALOMY, solo topramezone (SC 336 g/l) 3 gai/ha): 0%
- % activity ([2]; ALOMY, solo topramezone (SC 336 g/l) 6 gai/ha): 0%
- % activity ([2]; ALOMY, solo topramezone (SC 336 g/l) 12 gai/ha): 0%
- % activity ([3]; topramezone solo 12 gai/ha): 20%
- % activity ([3]; topramezone solo 24 gai/ha): 40%
- % activity ([3]; PAPRH, solo topramezone (SC 336 g/l) 3 gai/ha): 0%
- % activity ([3]; PAPRH, solo topramezone (SC 336 g/l) 6 gai/ha): 0%
- % activity [5, 23]: 30%
- % activity ([6]; topramezone solo 3 gai/ha): 0%
- % activity ([6]; topramezone solo 6 gai/ha): 0%
- % activity ([6]; topramezone solo 12 gai/ha): 10%
- % activity ([6]; topramezone solo 24 gai/ha): 20%
- % activity ([6]; LOLMU, solo topramezone (SC 336 g/l) 6 gai/ha): 0%
- % activity ([15]; topramezone solo 3 gai/ha): 0%
- % activity ([15]; topramezone solo 6 gai/ha): 30%
- % activity ([15]; topramezone solo 12 gai/ha): 30%
- % activity ([15]; topramezone solo 24 gai/ha): 85%
- % activity [7, 24]: 70%
- % activity ([16]; solo topramezone (SC 336 g/l) 3 gai/ha): 70%
- % activity ([16]; solo topramezone (SC 336 g/l) 12 gai/ha): 98%
- % activity ([16]; solo topramezone (SC 336 g/l) 24 gai/ha): 98%
- % activity [10, 24]: 75%
- % activity ([11]; topramezone solo 3 gai/ha): 0%
- % activity ([11]; topramezone solo 6 gai/ha): 0%
- % activity ([11]; topramezone solo 12 gai/ha): 5%
- % activity ([11]; topramezone solo 24 gai/ha): 25%
- % activity [13, 24]: 0%
- % activity [13, 23]: 0%
- % activity ([13]; 21 DAT, topramezone solo 12 gai/ha): 30%
- % activity [17]: 95%
